Literature values in patent publication US20240173338A1, “PREPARATION AND ACTIVITY CHARACTERIZATION OF CANNABICITRAN ENANTIOMERS” (University of North Carolina at Wilmington, priority 2022, published 2024).

What was measured:
[1] = rabbits
CB1 = CB1 (Homo sapiens, UniProt P21554)
CB2 = CB2 (Homo sapiens, UniProt P34972)
5-HT1A = biological target: T1, 5-HT1A (Homo sapiens, UniProt P08908)
T1 sequence (P08908 1-422): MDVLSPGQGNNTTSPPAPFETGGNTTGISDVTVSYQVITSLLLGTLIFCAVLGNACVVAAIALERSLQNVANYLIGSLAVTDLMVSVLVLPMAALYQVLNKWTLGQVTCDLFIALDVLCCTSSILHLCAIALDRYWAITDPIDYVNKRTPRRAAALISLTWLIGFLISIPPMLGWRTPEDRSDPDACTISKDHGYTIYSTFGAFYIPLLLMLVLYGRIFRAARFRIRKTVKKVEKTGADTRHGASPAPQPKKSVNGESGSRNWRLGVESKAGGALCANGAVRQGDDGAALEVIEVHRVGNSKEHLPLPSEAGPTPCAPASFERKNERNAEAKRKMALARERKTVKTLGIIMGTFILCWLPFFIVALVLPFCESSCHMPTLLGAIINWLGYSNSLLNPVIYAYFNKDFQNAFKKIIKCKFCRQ

GPR55 = GPR55 (Homo sapiens, UniProt Q9Y2T6)
Sequence of GPR55 (Q9Y2T6 whole entry, species assumed): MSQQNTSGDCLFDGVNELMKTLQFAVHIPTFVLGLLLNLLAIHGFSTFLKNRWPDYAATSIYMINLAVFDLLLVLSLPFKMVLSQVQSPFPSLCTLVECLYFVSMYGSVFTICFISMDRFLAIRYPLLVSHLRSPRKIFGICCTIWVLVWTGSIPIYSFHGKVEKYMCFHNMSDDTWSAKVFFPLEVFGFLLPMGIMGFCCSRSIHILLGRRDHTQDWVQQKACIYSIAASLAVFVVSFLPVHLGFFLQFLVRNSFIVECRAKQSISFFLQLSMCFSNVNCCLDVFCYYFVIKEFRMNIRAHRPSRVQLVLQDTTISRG

Sequence of CB2 (P34972 whole entry, species assumed): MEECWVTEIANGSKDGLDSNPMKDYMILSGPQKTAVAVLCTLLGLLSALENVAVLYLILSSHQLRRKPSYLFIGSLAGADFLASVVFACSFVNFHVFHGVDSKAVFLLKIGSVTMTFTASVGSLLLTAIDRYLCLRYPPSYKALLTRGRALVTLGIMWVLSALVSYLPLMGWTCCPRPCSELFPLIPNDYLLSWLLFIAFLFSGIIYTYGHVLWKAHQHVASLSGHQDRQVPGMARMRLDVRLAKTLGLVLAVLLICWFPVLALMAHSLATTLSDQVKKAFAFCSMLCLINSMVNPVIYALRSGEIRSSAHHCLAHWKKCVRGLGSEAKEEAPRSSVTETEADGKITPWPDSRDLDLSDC
Sequence of CB1 (P21554 whole entry, species assumed): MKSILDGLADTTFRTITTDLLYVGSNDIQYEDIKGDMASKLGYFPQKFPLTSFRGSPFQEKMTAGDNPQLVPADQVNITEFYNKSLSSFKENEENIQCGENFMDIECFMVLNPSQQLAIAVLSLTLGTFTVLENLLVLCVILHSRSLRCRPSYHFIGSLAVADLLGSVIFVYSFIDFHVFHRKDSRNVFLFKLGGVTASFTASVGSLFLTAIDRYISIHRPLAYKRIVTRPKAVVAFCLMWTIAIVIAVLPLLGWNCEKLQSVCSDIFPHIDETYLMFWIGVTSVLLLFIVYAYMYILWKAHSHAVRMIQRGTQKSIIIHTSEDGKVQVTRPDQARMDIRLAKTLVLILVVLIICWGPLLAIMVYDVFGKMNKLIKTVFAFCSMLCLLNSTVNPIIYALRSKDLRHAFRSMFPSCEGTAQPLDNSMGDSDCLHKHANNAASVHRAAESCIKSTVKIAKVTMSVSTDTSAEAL

## CCCCCc1cc2c3c(c1)O[C@]1(C)CC[C@@H]([C@H]3C1)C(C)(C)O2 [CBT-C (3), cannabicitran]
[1]
  effect on intraocular pressure: reduces intraocular pressure

## trans-CBD [(+)-2]
CB1
  binding to CB1: bind strongly
CB2
  binding to CB2: bind strongly

## trans-CBD [(−)-2]
5-HT1A
  binding to 5-HT1A: known to bind
Multiple TRPs
  binding to multiple TRPs: known to bind
GPR55
  binding to GPR55: known to bind
